Consider three molecules from patent US20240264161A1, “BIOMARKERS AND USES THEREOF” (MetaCurUm Biotech AB, priority 2021, published 2024).

For data set [1], the system named is PC-3U cells. The experiment in a line: Confocal imaging of abscission (GFP-VPS4A and β-tubulin). It is filed as cell-based, human. As for the experimental part: (A, B and D) Immunofluorescence experiments showing co-localization of AURKB (green) and TβRI (V22, red) during mitosis in human prostate cancer (PC-3U) (A) and human neuroblastoma (KELLY) (B) cells, and of TβRI (V22, green) and β-tubulin (red) throughout the PC-3U mitosis (D). Scale bar, 20 μm. (C) Localization of survivin (green) and TβRI (V22, red) in PC-3U cells throughout the mitosis (E) Decreased co-localization of TβRI and AURKB after treatment of PC-3U cells on ice for 30 min. Scale bar, 20 μm. (F) Representative confocal images showing the localization of green fluorescent protein (GFP)-VPS4A (green) and β-tubulin (red) with or without knockdown of TβRI by siRNA, or treatment with the TβRI kinase inhibitor SB505124. Scale bar, 5 μm. (G) Multinucleated cells were counted after knockdown of TGFBR1. Data presented as mean±SEM, N=3 [Student's t-test, *P<0.05]. Scale bar, 20 μm. […] The gene sets are ordered by normalized enrichment score. Color indicates the adjusted p-value. (I) GSEA plots of the hallmark mitotic spindle (left) and G2/M checkpoint (right) gene sets show their strong association with TGFBR1-correlated genes. […] (J) PC-3U cells were treated or not with SB505124 and TGFβ for 30 minutes, after which cell lysates were analyzed by immunoblotting. […]

Data set [2] relates to TβRI. The experiment in a line: Immunoblotting of AURKB phosphorylation after TβRI kinase inhibition. Conditions: PC-3U cells treated or not with SB505124 and TGFβ for 30 minutes. The data set is classed as cell-based, human. As for the experimental part:
(A, B and D) Immunofluorescence experiments showing co-localization of AURKB (green) and TβRI (V22, red) during mitosis in human prostate cancer (PC-3U) (A) and human neuroblastoma (KELLY) (B) cells, and of TβRI (V22, green) and β-tubulin (red) throughout the PC-3U mitosis (D). Scale bar, 20 μm. (C) Localization of survivin (green) and TβRI (V22, red) in PC-3U cells throughout the mitosis (E) Decreased co-localization of TβRI and AURKB after treatment of PC-3U cells on ice for 30 min. Scale bar, 20 μm. (F) Representative confocal images showing the localization of green fluorescent protein (GFP)-VPS4A (green) and β-tubulin (red) with or without knockdown of TβRI by siRNA, or treatment with the TβRI kinase inhibitor SB505124. Scale bar, 5 μm. (G) Multinucleated cells were counted after knockdown of TGFBR1. Data presented as mean±SEM, N=3 [Student's t-test, *P<0.05]. Scale bar, 20 μm. […] (J) PC-3U cells were treated or not with SB505124 and TGFβ for 30 minutes, after which cell lysates were analyzed by immunoblotting. […]
Cells were washed twice with ice-cold phosphate-buffered saline (PBS) and lysed in ice-cold lysis buffer [150 mM NaCl, 50 mM Tris, pH 8.0, 0.5% (v/v) deoxycholate, 1% (v/v) NP40, 10% (v/v) glycerol and protease inhibitors]. After centrifugation, the supernatants were collected, and protein concentrations determined using the BCA Protein Assay Kit (ThermoFisher Scientific). […]

For data set [3], the target named is T1, Flag-tagged wild-type AURKB.
T1 chain: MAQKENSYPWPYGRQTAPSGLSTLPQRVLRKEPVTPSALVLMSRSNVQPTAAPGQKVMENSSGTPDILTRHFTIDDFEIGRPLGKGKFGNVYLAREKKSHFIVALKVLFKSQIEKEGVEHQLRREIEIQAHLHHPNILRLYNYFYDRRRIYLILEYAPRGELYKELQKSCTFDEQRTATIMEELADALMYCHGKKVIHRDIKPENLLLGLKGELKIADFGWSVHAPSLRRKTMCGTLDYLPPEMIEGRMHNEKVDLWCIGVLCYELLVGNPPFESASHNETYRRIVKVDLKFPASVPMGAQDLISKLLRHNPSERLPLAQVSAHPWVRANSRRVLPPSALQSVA

For data set [4], the target named is T2, glutathione-S-transferase (GST)-TβRI, P36897.
T2 chain: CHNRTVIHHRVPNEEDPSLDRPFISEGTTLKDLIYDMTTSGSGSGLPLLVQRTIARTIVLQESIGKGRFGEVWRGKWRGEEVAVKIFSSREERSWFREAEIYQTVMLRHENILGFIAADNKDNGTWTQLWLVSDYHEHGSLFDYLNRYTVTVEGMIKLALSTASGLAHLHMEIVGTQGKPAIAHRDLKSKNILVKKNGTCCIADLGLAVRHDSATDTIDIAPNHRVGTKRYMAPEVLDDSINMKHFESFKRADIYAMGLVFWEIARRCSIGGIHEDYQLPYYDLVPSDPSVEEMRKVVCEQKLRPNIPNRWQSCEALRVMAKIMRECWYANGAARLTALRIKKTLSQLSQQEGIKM

As to `Cc1cccc(-c2[nH]c(C(C)(C)C)nc2-c2ccc3c(c2)OCO3)n1` [SB505124], the effect on abscission result in data set [1] is on record as “did not affect the abscission”. Also, the AURKB phosphorylation result in data set [2] is on record as “suppressed AURKB phosphorylation”.

B1: TNF receptor associated factor 6 (TRAF6), endogenous in PC-3U cells (protein)
chain: MSLLNCENSCGSSQSESDCCVAMASSCSAVTKDDSVGGTASTGNLSSSFMEEIQGYDVEFDPPLESKYECPICLMALREAVQTPCGHRFCKACIIKSIRDAGHKCPVDNEILLENQLFPDNFAKREILSLMVKCPNEGCLHKMELRHLEDHQAHCEFALMDCPQCQRPFQKFHINIHILKDCPRRQVSCDNCAASMAFEDKEIHDQNCPLANVICEYCNTILIREQMPNHYDLDCPTAPIPCTFSTFGCHEKMQRNHLARHLQENTQSHMRMLAQAVHSLSVIPDSGYISEVRNFQETIHQLEGRLVRQDHQIRELTAKMETQSMYVSELKRTIRTLEDKVAEIEAQQCNGIYIWKIGNFGMHLKCQEEEKPVVIHSPGFYTGKPGYKLCMRLHLQLPTAQRCANYISLFVHTMQGEYDSHLPWPFQGTIRLTILDQSEAPVRQNHEEIMDAKPELLAFQRPTIPRNPKGFGYVTFMHLEALRQRTFIKDDTLLVRCEVSTRFDMGSLRREGFQPRSTDAGV
For B1, the “polyubiquitination of AURKB (Flag IP, HA-ubiquitin immunoblot, with or without TRAF6 siRNA)” value in data set [3] is given as “Knockdown of TRAF6 by siRNA in PC-3U cells suppressed polyubiquitination of AURKB”.

B2: His-AURKB (protein)
chain: T1 chain
Turning to B2, the “in vitro kinase assay (phosphorylation of GST-TβRI)” value in data set [4] is on record as “His-AURKB phosphorylated glutathione-S-transferase (GST)-TβRI in an in vitro kinase assay”.
